Measured values: ChEMBL document CHEMBL2040814, “Synthesis and biological activity of substituted 2,4-diaminopyrimidines that inhibit Bacillus anthracis” (2012)
≈ marks a conversion by molar mass, not a printed value.

test system: Bacillus anthracis; experiment: Antibacterial activity against Bacillus anthracis Sterne after 16 hrs by alamar blue broth microdilution technique; format: functional

| SMILES | MIC |
| --- | --- |
| CCCC1c2ccccc2C=NN1C(=O)/C=C/c1cc(Cc2cnc(N)nc2N)cc(OC)c1OC (racemic) | 1 µg/mL (≈ 2.06 µM) |
| COc1cc(Cc2cnc(N)nc2N)cc(/C=C/C(=O)N2N=Cc3ccccc3C2CC(C)C)c1OC (racemic) | 1 µg/mL (≈ 2 µM) |
| COc1cc(Cc2cnc(N)nc2N)cc(/C=C/C(=O)N2N=Cc3ccccc3C2Cc2ccccc2)c1OC (racemic) | 8 µg/mL (≈ 15 µM) |
| COc1cc(Cc2cnc(N)nc2N)cc(/C=C/C(=O)N2N=Cc3ccccc3C2CCC(F)(F)F)c1OC (racemic) | 1 µg/mL (≈ 1.85 µM) |
| COc1cc(Cc2cnc(N)nc2N)cc(/C=C/C(=O)N2N=Cc3ccccc3C2C2CCCCC2)c1OC (racemic) | 1 µg/mL (≈ 1.9 µM) |
| COc1cc(Cc2cnc(N)nc2N)cc(/C=C/C(=O)N2N=Cc3ccccc3C2c2ccccc2C)c1OC (racemic) | 8 µg/mL (≈ 15 µM) |
| COc1cc(Cc2cnc(N)nc2N)cc(/C=C/C(=O)N2N=Cc3ccccc3C2c2ccc(F)cc2)c1OC (racemic) | 1 µg/mL (≈ 1.86 µM) |
| COc1cc(Cc2cnc(N)nc2N)cc(/C=C/C(=O)N2N=Cc3ccccc3C2C(C)C)c1OC (racemic) | 1 µg/mL (≈ 2.06 µM) |
| COc1ccc(CC2c3ccccc3C=NN2C(=O)/C=C/c2cc(Cc3cnc(N)nc3N)cc(OC)c2OC)cc1 (racemic) | 8 µg/mL (≈ 14.2 µM) |
| CCC(CC)C1c2ccccc2C=NN1C(=O)/C=C/c1cc(Cc2cnc(N)nc2N)cc(OC)c1OC (racemic) | 4 µg/mL (≈ 7.77 µM) |
| COc1cc(Cc2cnc(N)nc2N)cc(/C=C/C(=O)N2N=Cc3ccccc3C2c2cccc(F)c2)c1OC (racemic) | 2 µg/mL (≈ 3.71 µM) |
| COc1cc(Cc2cnc(N)nc2N)cc(/C=C/C(=O)N2N=Cc3ccccc3C2Cc2ccc(OC(F)(F)F)cc2)c1OC (racemic) | 4 µg/mL (≈ 6.47 µM) |
| COc1cc(Cc2cnc(N)nc2N)cc(/C=C/C(=O)N2N=Cc3ccccc3C2c2cc(C)cc(C)c2)c1OC (racemic) | 4 µg/mL (≈ 7.29 µM) |
| COc1cc(Cc2cnc(N)nc2N)cc(/C=C/C(=O)N2N=Cc3ccccc3C2c2ccccc2)c1OC (racemic) | 0.375 µg/mL (≈ 0.72 µM) |
| COc1cc(Cc2cnc(N)nc2N)cc(/C=C/C(=O)N2N=Cc3ccccc3C2c2ccc(C)cc2)c1OC (racemic) | 1 µg/mL (≈ 1.87 µM) |
| COc1cc(Cc2cnc(N)nc2N)cc(/C=C/C(=O)N2N=Cc3ccccc3C2Cc2ccc(C)cc2)c1OC (racemic) | 4 µg/mL (≈ 7.29 µM) |
